Values after ≈ are worked out from the molar mass of the structure shown.
Columns and labels:
Experiment in all cases: MIC (Minimum Inhibitory Concentration) determination, broth dilution in 96-well plates
Assay type in all cases: cell-based
[1] = system: Streptococcus pyogenes DA7121; settings: TH broth, aerobic, 37° C., 24 h, cells at t = 0 ˜10^6/ml; for MIC: Streptococcus pyogenes, DA7121, read-out: Antibacterial activity, MIC, Strep. pyogenes DA7121
Protocol: (§1) The fusidic acid analogues of the invention and the reference compounds 201 (fusidic acid (as the sodium salt)), 207, 205 203 and 206 (see notes to Table A) were stored in powder form at +4° C. When used in assays, they were dissolved in 95% EtOH (3.84 mg/ml) and kept for a maximum of 1 month at −20° C. before being discarded. [table] LB media (per 1000 ml ddH2O: 10 g Bacto-tryptone, 5 g yeast extract, 10 g NaCl). THB (Todd-Hewitt Broth) media, SIGMA, product number: T1438 (per 1000 ml ddH2O: 50 g Beef-Heart Infusion, 20 g Casein peptone, 2 g Dextrose, 2 g NaHCO3, 2.5 g NaCl, 0.4 g Na2HPO4). Plates were made using an agar concentration of 1.5%. Blood-agar plates contained an additional 5% (v/v) defibrinated horse blood purchased from SLU (Swedish Agricultural University), Uppsala. MIC tests on the compounds were done in 96-well micro titer plates (Thermo Labsystems). 4×10^5 bacteria were inoculated in 0.4 ml growth media (S. aureus, LB broth, S. pyogenes—TH broth) containing serial dilutions of the compound to be tested starting from 128 μg/ml (dilution factor 2, e.g. 128 μg/ml, 64 μg/ml, . . . , 0.016 μg/ml). The criterion for sensitivity is no visible growth after a 24 h, aerobic incubation at 37° C. Each compound was tested at least twice, and fusidic acid was always included as an experimental control. [table]

[2] = system: Staphylococcus aureus 8325-4; settings: LB broth, aerobic, 37° C., 24 h, cells at t = 0 ˜10^6/ml
Protocol: as §1

[3] = system: Streptococcus pyogenes DA7864; settings: TH broth, aerobic, 37° C., 24 h, cells at t = 0 ˜10^6/ml; for MIC: Streptococcus pyogenes, DA7864, read-out: Antibacterial activity, MIC, Strep. pyogenes DA7864
Protocol: as §1

[4] = system: Staphylococcus aureus FDA486; settings: LB broth, aerobic, 37° C., 24 h, cells at t = 0 ˜10^6/ml; for MIC: Staphylococcus aureus, FDA486, read-out: Antibacterial activity, MIC, Staph. aureus FDA486
Protocol: as §1

[5] = system: Staphylococcus aureus CJ12; settings: LB broth, aerobic, 37° C., 24 h, cells at t = 0 ˜10^6/ml; for MIC: Staphylococcus aureus, CJ12, read-out: Antibacterial activity, MIC, Staph. aureus CJ12
Protocol: as §1

Row | Molecule | Antibacterial activity, MIC, Strep. pyogenes DA7121 [1] [µg/mL] | Antibacterial activity, MIC, Staph. aureus 8325-4 [2] [µg/mL] | Antibacterial activity, MIC, Strep. pyogenes DA7864 [3] [µg/mL] | Antibacterial activity, MIC, Staph. aureus FDA486 [4] [µg/mL] | Antibacterial activity, MIC, Staph. aureus CJ12 [5] [µg/mL] | MIC [1] [µg/mL] | MIC [3] [µg/mL] | MIC [4] [µg/mL] | MIC [5] [µg/mL] | MIC ([2]; Staphylococcus aureus, 83254, read-out: Antibacterial activity, MIC, Staph. aureus 8325-4) [µg/mL]
1 | 24-bromo-16-deacetoxy-16β-ethoxy-fusidic acid [Compound 116] | 7 | 0.11 | 7 | 0.44 | 0.06 | – | – | – | – | –
2 | 24-bromo-17S,20S-dihydrofusidic acid [Compound 115] | 1.8 | 0.11 | 1.8 | 0.88 | 0.06 | – | – | – | – | –
3 | 24-bromo-17S,20S-methylene-fusidic acid [Compound 122] | 7 | 0.88 | 7 | 0.88 | 0.22 | – | – | – | – | –
4 | CC(=O)O[C@H]1C[C@@]2(C)[C@@H](C[C@@H](O)[C@H]3[C@@]4(C)CC[C@@H](O)[C@@H](C)[C@@H]4CC[C@@]32C)/C1=C(\CCC(Br)=C(C)C)C(=O)O [Compound 108, 24-bromo-fusidic acid] | 0.8 | – | 0.8 | 0.05 | 0.03 | – | – | – | – | –
5 | CC(C)=C(Br)CC/C(C(=O)O)=C1\C2C[C@@H](O)C3[C@@]4(C)CC[C@@H](O)[C@@H](C)C4CC[C@]3(C)[C@@]2(C)C[C@@H]1[S+]([O-])C(C)C (stereo partly drawn) [Compound 113, 24-bromo-16-deacetoxy-16β-isopropylsulfinyl-fusidic acid] | – | – | – | – | – | 0.4 (≈ 0.637 µM) | 0.4 (≈ 0.637 µM) | 0.22 (≈ 0.35 µM) | 0.11 (≈ 0.175 µM) | –
6 | CC(=O)O[C@H]1C[C@@]2(C)[C@@H](C[C@@H](O)[C@H]3[C@@]4(C)CC[C@@H](O)[C@@H](C)[C@@H]4CC[C@@]32C)/C1=C(\CCC=C(C)C)C(=O)O [Ref. comp. 201, Fusidic acid] | – | – | – | – | – | 3.5 (≈ 6.77 µM) | 3.5 (≈ 6.77 µM) | 0.11 (≈ 0.213 µM) | 0.03 (≈ 0.0581 µM) | 0.03 (≈ 0.0581 µM)
7 | CCO[C@H]1C[C@@]2(C)[C@@H](C[C@@H](O)[C@H]3[C@@]4(C)CC[C@@H](O)[C@@H](C)[C@@H]4CC[C@@]32C)/C1=C(\CCC=C(C)C)C(=O)O [Ref. comp. 203, 16-Deacetoxy-16β-ethoxy-fusidic acid] | 7 | 0.22 | 14 | 0.22 | 0.06 | – | – | – | – | –
8 | CC(=O)OC1CC2(C)C(CC(O)C3C4(C)CCC(O)C(C)C4CCC32C)C1C(CCC=C(C)C)C(=O)O (stereo not drawn) [Ref. comp. 205, 17S,20S-Dihydrofusidic acid] | 14 | 0.11 | 28 | 0.44 | 0.06 | – | – | – | – | –
9 | CC(=O)O[C@H]1C[C@@]2(C)[C@@H](C[C@@H](O)[C@H]3[C@@]4(C)CC[C@@H](O)[C@@H](C)[C@@H]4CC[C@@]32C)[C@]12C[C@]2(CCC=C(C)C)C(=O)O [Ref. comp. 206, 17S,20S-Methylene-fusidic acid] | >32 | 0.11 | 28 | 0.22 | 0.06 | – | – | – | – | –
10 | CC(C)=CCC/C(C(=O)O)=C1/[C@@H]([S+]([O-])C(C)C)C[C@@]2(C)[C@H]1C[C@@H](O)[C@H]1[C@@]3(C)CC[C@@H](O)[C@@H](C)[C@@H]3CC[C@@]12C (stereo partly drawn) [Ref. comp. 207, 16-Deacetoxy-16β-isopropylsulfinyl-fusidic acid] | 1.6 | – | 1.6 | 0.22 | 0.05 | – | – | – | – | –

Source: patent publication US20070105826A1, “Novel fusidic acid derivatives” (LEO PHARMA A/S, priority 2003, published 2007)
